Assays:
[1] = DPPH free-radical scavenging reaction
Method: Absorbance of the reaction solution was measured at 517 nm. In this study, vitamin C was regarded as a positive control. Free-radical scavenging rate was calculated in accordance with the following equation: Free-radical scavenging rate (%)=[1−Asample/Acontrol)/Acontrol]×100% Wherein, the Asample means the absorbance of the tested samples, and Acontrol means the absorbance of blank control.

[2] = tested on: pituitrin-caused acute myocardial ischemia in rats; experiment: Pituitrin-caused experimental acute myocardial ischemia in rats (ECG J point and T wave); type: in vivo, SD rats; parameters: J point / T wave: unit not given here
Method: Administration dose of the (R)-salvianolic acid T lyophilized powder was 10 mg/kg body-weight in high-dose group; 5.0 mg/kg body-weight in low-dose group.
2.1 Screening of Animals: Before formal experiment, rats were injected via vena caudalis with pituitrin (Pit) (1 U/kg). Normal ECG and the ECG of 5 min after injection were recorded to observe J point elevation and T wave abnormality. Animals who had abnormal ECG before injection or who were insensitive to Pit were rejected.
2.2 Grouping of Animals: The desirable rats were divided into 3 groups randomly, respectively named […]Model control group, □(R)-salvianolic acid T lyophilized powder low-dose group; □(R)-salvianolic acid T lyophilized powder high-dose group.
3. Experimental Methods: SD rats, in body-weight of 220-250 g, half male and half female, were randomly divided into groups, 10 animals in each group. The rats in the treatment groups were drenched with aqueous suspensions of different samples each day, while the rats in the model control group were drenched with equal volume of normal saline. All animals were consecutively administered for 7 days. 40 min after final administration, the rats were anesthetized and connected with devices to record lead II normal ECG. The pituitrin (Pit) was injected at a constant speed in the dosage of 1 U/kg body-weight via vena caudalis within about 10 s. ECG changes were recorded at 0 s, 5 s, 10 s, 15 s, 30 s, 45 s, 1 min, 2 min, 3 min, 4 min, 5 min, 10 min and 15 min after administration. Differences between pre injection and post injection of Pit of each group as well as between the treatment group and the model control group were compared to analyze changes of J point and T wave, and the data were analyzed by t-test.

[3] = high-dose group (10 mg/kg), 0 s after pituitrin
[4] = high-dose group (10 mg/kg), 15 s after pituitrin
[5] = high-dose group (10 mg/kg), 30 s after pituitrin
[6] = high-dose group (10 mg/kg), 45 s after pituitrin
[7] = high-dose group (10 mg/kg), 1 min after pituitrin
[8] = high-dose group (10 mg/kg), 5 min after pituitrin
[9] = high-dose group (10 mg/kg), 10 min after pituitrin
[10] = high-dose group (10 mg/kg, drenched 7 days), normal ECG before pituitrin
[11] = low-dose group (5.0 mg/kg), 0 s after pituitrin
[12] = low-dose group (5.0 mg/kg), 15 s after pituitrin
[13] = low-dose group (5.0 mg/kg), 30 s after pituitrin
[14] = low-dose group (5.0 mg/kg), 45 s after pituitrin
[15] = low-dose group (5.0 mg/kg), 1 min after pituitrin
[16] = low-dose group (5.0 mg/kg), 5 min after pituitrin
[17] = low-dose group (5.0 mg/kg), 10 min after pituitrin
[18] = low-dose group (5.0 mg/kg, drenched 7 days), normal ECG before pituitrin

## O=C(/C=C/c1ccc(O)c(O)c1/C(=C\c1ccc(O)c(O)c1)C(=O)O)O[C@H](Cc1ccc(O)c(O)c1)C(=O)O [(R)-salvianolic acid T]
[1]; compared with positive control vitamin C
  free-radical scavenging compared with vitamin C: much higher free-radical scavenging than that of the vitamin C
[1]; sample 0.625 μg/ml, 100 μM DPPH, 20 min, 25° C.
  Free-radical scavenging rate: 10.51 ± 0.73%
[1]; sample 1.25 μg/ml
  Free-radical scavenging rate: 28.15 ± 2.47%
[1]; sample 2.5 μg/ml
  Free-radical scavenging rate: 43.41 ± 1.85%
[1]; sample 5 μg/ml
  Free-radical scavenging rate: 85.59 ± 8.75%
[1]; sample 10 μg/ml
  Free-radical scavenging rate: 99.47 ± 5.14%
[2]; 10.0 mg/kg
  effect of anti-acute myocardiac ischemia: had effect of anti-acute myocardiac ischemia
[2]; [3]
  J point: −0.040 ± 0.039
  T wave: 0.128 ± 0.106
[2]; [4]
  J point: −0.069 ± 0.035
  T wave: 0.150 ± 0.101
[2]; [5]
  J point: −0.058 ± 0.035
  T wave: 0.100 ± 0.095
[2]; [6]
  J point: −0.052 ± 0.031
  T wave: 0.134 ± 0.105
[2]; [7]
  J point: −0.016 ± 0.037
  T wave: 0.145 ± 0.099
[2]; [8]
  J point: −0.058 ± 0.049
  T wave: 0.127 ± 0.104
[2]; [9]
  J point: -0.061 ± 0.049
  T wave: 0.150 ± 0.102
[2]; [10]
  J point: −0.049 ± 0.037
  T wave: 0.099 ± 0.073
[2]; [11]
  J point: −0.040 ± 0.027
  T wave: 0.134 ± 0.104
[2]; [12]
  J point: 0.023 ± 0.039
  T wave: 0.211 ± 0.109
[2]; [13]
  J point: −0.052 ± 0.022
  T wave: 0.189 ± 0.120
[2]; [14]
  J point: −0.030 ± 0.041
  T wave: 0.176 ± 0.137
[2]; [15]
  J point: −0.016 ± 0.032
  T wave: 0.151 ± 0.097
[2]; [16]
  J point: −0.034 ± 0.052
  T wave: 0.121 ± 0.101
[2]; [17]
  J point: −0.025 ± 0.051
  T wave: 0.142 ± 0.099
[2]; [18]
  J point: −0.054 ± 0.046
  T wave: 0.101 ± 0.069
